In PubChem BioAssay AID1963970 (Molecular Pharmacology Branch, DTP, NCI, 2024):

Test system: 931267-113-T-J1-PDC multicell spheroid viability
Experiment: Anticancer human tumor 931267-113-T-J1-PDC patient-derived colon adenocarcinoma cell line growth inhibition [PI3K]
Conditions: for IC50: curve of first compound; for viability, T/C: stronger effect = lower value; active = viability on the fitted dose curve at most 10% of control; inactive = the rest
How it was run: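 We assembled tumor spheroids that included a stromal compartment of HUVEC and MSCs, then exposed them to targeted agents alone and together with PI3K pathway inhibitors. Concentration series descended by half-log from clinically achievable Cmax levels. Viability served as the endpoint.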

[1] = second compound 0.0316 µM, first compound 0.000316 µM
[2] = second compound 0.0316 µM, first compound 0.001 µM
[3] = second compound 0.0316 µM, first compound 0.00316 µM
[4] = second compound 0.0316 µM, first compound 0.01 µM
[5] = second compound 0.0316 µM, first compound 0.0316 µM
[6] = second compound 0.0316 µM, first compound 0.1 µM
[7] = second compound 0.1 µM, first compound 0.000316 µM
[8] = second compound 0.1 µM, first compound 0.001 µM
[9] = second compound 0.1 µM, first compound 0.00316 µM
[10] = second compound 0.1 µM, first compound 0.01 µM
[11] = second compound 0.1 µM, first compound 0.0316 µM
[12] = second compound 0.1 µM, first compound 0.1 µM
[13] = second compound 0.316 µM, first compound 0.000316 µM
[14] = second compound 0.316 µM, first compound 0.001 µM
[15] = second compound 0.316 µM, first compound 0.00316 µM
[16] = second compound 0.316 µM, first compound 0.01 µM
[17] = second compound 0.316 µM, first compound 0.0316 µM
[18] = second compound 0.316 µM, first compound 0.1 µM
[19] = second compound 1 µM, first compound 0.000316 µM
[20] = second compound 1 µM, first compound 0.001 µM
[21] = second compound 1 µM, first compound 0.00316 µM
[22] = second compound 1 µM, first compound 0.01 µM
[23] = second compound 1 µM, first compound 0.0316 µM
[24] = second compound 1 µM, first compound 0.1 µM
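Note: viability read 7 days after compound addition.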

CC(=O)c1c(C)c2cnc(Nc3ccc(N4CCNCC4)cn3)nc2n(C2CCCC2)c1=O + CC(Nc1ccc2c(c1)OCCn1cc(N3C(=O)OCC3C(F)F)nc1-2)C(N)=O
> 100 nM: IC50 (second compound 0.00316 µM) | IC50 (second compound 0.01 µM) | IC50 (second compound 0.0316 µM) | IC50 (second compound 0.1 µM) | IC50 (second compound 0.316 µM) | IC50 (second compound 1 µM)
inactive: viability, T/C (second compound 0.00316 µM, first compound 0.000316 µM) 104% | viability, T/C (second compound 0.00316 µM, first compound 0.001 µM) 110% | viability, T/C (second compound 0.00316 µM, first compound 0.00316 µM) 95.1% | viability, T/C (second compound 0.00316 µM, first compound 0.01 µM) 111% | viability, T/C (second compound 0.00316 µM, first compound 0.0316 µM) 105% | viability, T/C (second compound 0.00316 µM, first compound 0.1 µM) 99.8% | viability, T/C (second compound 0.01 µM, first compound 0.000316 µM) 111% | viability, T/C (second compound 0.01 µM, first compound 0.001 µM) 101% | viability, T/C (second compound 0.01 µM, first compound 0.00316 µM) 98.7% | viability, T/C (second compound 0.01 µM, first compound 0.01 µM) 93.3% | viability, T/C (second compound 0.01 µM, first compound 0.0316 µM) 108% | viability, T/C (second compound 0.01 µM, first compound 0.1 µM) 105% | viability, T/C [1] 108% | viability, T/C [2] 93.5% | viability, T/C [3] 91.9% | viability, T/C [4] 106% | viability, T/C [5] 110% | viability, T/C [6] 95.4% | viability, T/C [7] 100% | viability, T/C [8] 97.7% | viability, T/C [9] 92.7% | viability, T/C [10] 87.1% | viability, T/C [11] 105% | viability, T/C [12] 87.8% | viability, T/C [13] 92.1% | viability, T/C [14] 88.1% | viability, T/C [15] 81% | viability, T/C [16] 85.7% | viability, T/C [17] 91.6% | viability, T/C [18] 82.2% | viability, T/C [19] 75.9% | viability, T/C [20] 74% | viability, T/C [21] 77.8% | viability, T/C [22] 70.5% | viability, T/C [23] 80.1% | viability, T/C [24] 66.3%

Cn1cnc2c(F)c(Nc3ccc(Br)cc3Cl)c(C(=O)NOCCO)cc21 + Cc1nc(NC(=O)N2CCCC2C(N)=O)sc1-c1ccnc(C(C)(C)C(F)(F)F)c1
active: viability, T/C (second compound 0.316 µM, first compound 3 µM) 8.73% | viability, T/C (second compound 3.16 µM, first compound 0.949 µM) 9.74% | viability, T/C (second compound 3.16 µM, first compound 3 µM) 5.86% | viability, T/C (second compound 10 µM, first compound 0.949 µM) 9.35% | viability, T/C (second compound 10 µM, first compound 3 µM) 3.2%
61.6 nM: IC50 (second compound 0.316 µM)
42.1 nM: IC50 (second compound 1 µM)
< 9.49 nM: IC50 (second compound 10 µM)
75.8 nM: IC50 (second compound 0.0316 µM)
80.6 nM: IC50 (second compound 0.1 µM)
inactive: viability, T/C (second compound 0.0316 µM, first compound 0.00949 µM) 86% | viability, T/C (second compound 0.0316 µM, first compound 0.03 µM) 63.5% | viability, T/C (second compound 0.0316 µM, first compound 0.0949 µM) 47.3% | viability, T/C (second compound 0.0316 µM, first compound 0.3 µM) 32.2% | viability, T/C (second compound 0.0316 µM, first compound 0.949 µM) 18.7% | viability, T/C (second compound 0.0316 µM, first compound 3 µM) 12% | viability, T/C (second compound 0.1 µM, first compound 0.00949 µM) 85.7% | viability, T/C (second compound 0.1 µM, first compound 0.03 µM) 70.2% | viability, T/C (second compound 0.1 µM, first compound 0.0949 µM) 44.1% | viability, T/C (second compound 0.1 µM, first compound 0.3 µM) 30.1% | viability, T/C (second compound 0.1 µM, first compound 0.949 µM) 21% | viability, T/C (second compound 0.1 µM, first compound 3 µM) 10.4% | viability, T/C (second compound 0.316 µM, first compound 0.00949 µM) 74.5% | viability, T/C (second compound 0.316 µM, first compound 0.03 µM) 61.5% | viability, T/C (second compound 0.316 µM, first compound 0.0949 µM) 43.3% | viability, T/C (second compound 0.316 µM, first compound 0.3 µM) 25.9% | viability, T/C (second compound 0.316 µM, first compound 0.949 µM) 16.6% | viability, T/C (second compound 1 µM, first compound 0.00949 µM) 66.4% | viability, T/C (second compound 1 µM, first compound 0.03 µM) 60.5% | viability, T/C (second compound 1 µM, first compound 0.0949 µM) 29% | viability, T/C (second compound 1 µM, first compound 0.3 µM) 20.8% | viability, T/C (second compound 1 µM, first compound 0.949 µM) 13.8% | viability, T/C (second compound 1 µM, first compound 3 µM) 5.73% | viability, T/C (second compound 3.16 µM, first compound 0.00949 µM) 64% | viability, T/C (second compound 3.16 µM, first compound 0.03 µM) 41.6% | viability, T/C (second compound 3.16 µM, first compound 0.0949 µM) 26.7% | viability, T/C (second compound 3.16 µM, first compound 0.3 µM) 15.1% | viability, T/C (second compound 10 µM, first compound 0.00949 µM) 49.8% | viability, T/C (second compound 10 µM, first compound 0.03 µM) 33.1% | viability, T/C (second compound 10 µM, first compound 0.0949 µM) 25.5% | viability, T/C (second compound 10 µM, first compound 0.3 µM) 12.2%
19.6 nM: IC50 (second compound 3.16 µM)

CC(C)n1nc(-c2ccc3oc(N)nc3c2)c2c(N)ncnc21 + Cc1nc(NC(=O)N2CCCC2C(N)=O)sc1-c1ccnc(C(C)(C)C(F)(F)F)c1
91.5 nM: IC50 (second compound 0.0316 µM)
56.9 nM: IC50 (second compound 1 µM)
8.31 nM: IC50 (second compound 10 µM)
24.9 nM: IC50 (second compound 3.16 µM)
69.7 nM: IC50 (second compound 0.316 µM)
inactive: viability, T/C [1] 97.2% | viability, T/C [2] 84.3% | viability, T/C [3] 81.5% | viability, T/C [4] 101% | viability, T/C [5] 78.3% | viability, T/C [6] 47.6% | viability, T/C [7] 97.3% | viability, T/C [8] 91.1% | viability, T/C [9] 89.9% | viability, T/C [10] 92.6% | viability, T/C [11] 79.7% | viability, T/C [12] 41.5% | viability, T/C [13] 88.8% | viability, T/C [14] 91.9% | viability, T/C [15] 86.8% | viability, T/C [16] 85.5% | viability, T/C [17] 68.4% | viability, T/C [18] 41.5% | viability, T/C [19] 78.9% | viability, T/C [20] 72.3% | viability, T/C [21] 72.7% | viability, T/C [22] 66.8% | viability, T/C [23] 64.1% | viability, T/C [24] 38.3% | viability, T/C (second compound 3.16 µM, first compound 0.000316 µM) 68.8% | viability, T/C (second compound 3.16 µM, first compound 0.001 µM) 67.8% | viability, T/C (second compound 3.16 µM, first compound 0.00316 µM) 62.1% | viability, T/C (second compound 3.16 µM, first compound 0.01 µM) 58.4% | viability, T/C (second compound 3.16 µM, first compound 0.0316 µM) 48.4% | viability, T/C (second compound 3.16 µM, first compound 0.1 µM) 30.7% | viability, T/C (second compound 10 µM, first compound 0.000316 µM) 62.3% | viability, T/C (second compound 10 µM, first compound 0.001 µM) 52.3% | viability, T/C (second compound 10 µM, first compound 0.00316 µM) 55.6% | viability, T/C (second compound 10 µM, first compound 0.01 µM) 45.7% | viability, T/C (second compound 10 µM, first compound 0.0316 µM) 44% | viability, T/C (second compound 10 µM, first compound 0.1 µM) 24.1%
77.7 nM: IC50 (second compound 0.1 µM)
